Assay results reported in patent EP4032896A1, “THIAZOLOPYRIMIDONES AS INHIBITORS OF DDR1/2 AND THERAPEUTIC USES THEREOF” (Fundación del Sector Público Estatal Centro Nacional de …, priority 2021, dated 2022).

Assays:
[1] = biological target: T1, DDR2 (Homo sapiens, UniProt Q16832); assay: LanthaScreen Eu-Kinase Binding Assay (TR-FRET tracer displacement), DDR2; conditions: catalytic domain GST Tag DDR2; Kinase Tracer 178
T1 construct: The enzymes were purchased as a catalytic domain GST Tag DDR1(#PR6913A) and DDR2 (#PR7167A); purchased ThermoFisher PR7167A
T1 sequence (Q16832 563-849 limits assumed): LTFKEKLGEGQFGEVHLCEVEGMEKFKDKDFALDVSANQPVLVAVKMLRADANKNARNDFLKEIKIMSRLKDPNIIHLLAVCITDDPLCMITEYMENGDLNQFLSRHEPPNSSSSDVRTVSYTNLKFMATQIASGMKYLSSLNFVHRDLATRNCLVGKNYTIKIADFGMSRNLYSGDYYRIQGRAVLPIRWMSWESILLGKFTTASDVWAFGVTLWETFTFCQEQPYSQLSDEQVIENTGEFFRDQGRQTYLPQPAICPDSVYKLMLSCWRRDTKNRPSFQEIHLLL
Text: (§1) DDR1/2 binding assay: The binding assay relies on the LanthaScreen ™ Eu-Kinase Binding Assay (ThermoFisher Scientfic). This is a kinase assay platform based on measuring the binding and displacement of an Alexa Fluor® conjugate of an ATP-competitive kinase inhibitor or tracer at a kinase active site (Kinase Tracer 178. #PV5593). Binding of the tracer to the kinase is detected by addition of a europium (Eu)-labeled anti-GST antibody (#PV 5594) which specifically labels the kinase of interest. This binding results in a high degree of fluorescence resonance energy transfer (FRET), whereas displacement of the tracer with a kinase inhibitor results in a loss of FRET. The enzymes were purchased as a catalytic domain GST Tag DDR1(#PR6913A) and DDR2 (#PR7167A) from ThermoFisher. Assay conditions were as indicated by the kit manufacturers. Assays were performed in 384-well plates. The final read out was generated using an EnVision plate reader (Perkin-Elmer). The emission ratio was calculated by dividing the acceptor/tracer emission (665 nm) by the antibody/donor emission (615 nm). Values were plotted against the inhibitor concentration and fit to a sigmoid dose-response curve using Activity base by IDBS software.

[2] = biological target: T2, DDR1 (Homo sapiens, UniProt Q08345); assay: LanthaScreen Eu-Kinase Binding Assay (TR-FRET tracer displacement), DDR1; conditions: catalytic domain GST Tag DDR1; Kinase Tracer 178
T2 construct: The enzymes were purchased as a catalytic domain GST Tag DDR1(#PR6913A); purchased ThermoFisher PR6913A
T2 sequence (Q08345 610-905 limits assumed): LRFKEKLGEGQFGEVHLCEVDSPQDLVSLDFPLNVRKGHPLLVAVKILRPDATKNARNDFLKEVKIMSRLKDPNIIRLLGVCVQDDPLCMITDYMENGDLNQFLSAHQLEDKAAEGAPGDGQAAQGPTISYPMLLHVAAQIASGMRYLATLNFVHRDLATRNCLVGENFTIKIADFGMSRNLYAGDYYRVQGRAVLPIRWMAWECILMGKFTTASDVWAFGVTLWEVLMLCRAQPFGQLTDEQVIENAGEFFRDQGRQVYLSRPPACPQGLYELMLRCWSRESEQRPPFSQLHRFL
Text: as §1

[3] = biological target: T3, DDR1 (Mus musculus, UniProt Q03146); assay: Cellular assay: inhibition of Collagen I-induced DDR1 autophosphorylation in HEK293T cells transiently transfected with DDR1 plasmid (Western blot); type: cell-based, human; conditions: pcDNA3.1 DDR1 WT mouse plasmid, compound 1 h, then 10 µg/mL Collagen I 1 h, P-DDR1 (Y513), read-out: pDDR1 EC50
T3 construct: expressed in transfected cells; host or cells: HEK293T
T3 sequence (Q03146 20-911): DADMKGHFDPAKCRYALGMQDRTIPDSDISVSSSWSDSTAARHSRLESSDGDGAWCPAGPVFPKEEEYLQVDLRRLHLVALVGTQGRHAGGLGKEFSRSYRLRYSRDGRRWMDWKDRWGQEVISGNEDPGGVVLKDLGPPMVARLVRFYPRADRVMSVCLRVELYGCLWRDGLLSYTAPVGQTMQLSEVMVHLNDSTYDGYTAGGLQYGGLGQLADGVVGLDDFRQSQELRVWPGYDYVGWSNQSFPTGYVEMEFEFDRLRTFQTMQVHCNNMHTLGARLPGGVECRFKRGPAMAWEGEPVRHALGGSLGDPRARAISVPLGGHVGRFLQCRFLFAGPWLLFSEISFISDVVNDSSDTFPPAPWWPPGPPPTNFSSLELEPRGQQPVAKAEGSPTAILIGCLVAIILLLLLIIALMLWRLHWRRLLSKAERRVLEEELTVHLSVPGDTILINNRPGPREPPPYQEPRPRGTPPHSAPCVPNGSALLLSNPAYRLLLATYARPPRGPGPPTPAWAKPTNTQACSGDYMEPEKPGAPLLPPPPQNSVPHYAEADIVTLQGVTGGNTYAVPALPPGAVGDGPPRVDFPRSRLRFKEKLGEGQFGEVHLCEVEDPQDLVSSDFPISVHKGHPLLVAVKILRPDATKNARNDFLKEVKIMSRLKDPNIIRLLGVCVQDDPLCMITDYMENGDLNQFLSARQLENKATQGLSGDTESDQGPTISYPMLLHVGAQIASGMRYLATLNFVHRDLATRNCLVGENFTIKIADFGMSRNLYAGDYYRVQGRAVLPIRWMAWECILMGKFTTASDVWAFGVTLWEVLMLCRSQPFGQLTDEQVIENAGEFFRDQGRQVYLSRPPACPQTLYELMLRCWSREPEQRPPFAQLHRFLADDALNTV
Protocol: DDR1/2 cellular assay: Transient transfection of HEK293T cells with DDR1 plasmid is used to study the inhibition of the autophosphorylation of DDR1 induced by Collagen I in cells. HEK293T are seeded, 6x10^5 cells per well in 6-well plates and incubated for 6 h at 37 °C, 5% CO2. Then, cells are transfected using Effectene reactive (Quiagen) with pcDNA3.1 DDR1 WT mouse plasmid. Cells are incubated with transfection complexes under normal growth conditions for 24 h. After that, medium is replaced with fresh medium and cells are incubated for an additional 18 h. Eight serial 1:3 compound dilutions are made in DMSO. The compounds are added to each well of 6 well cell plates and are incubated at 37 °C under CO2 atmosphere 1 h. DDR1's autophosphorylation is stimulated by 1h treatment with 10 µg/mL Collagen I. Then, cells are washed in PBS, lyse adding 100 µl of complete RIPA protein lysis buffer (RIPA Buffer, 1 mM DTT, 5 mM Bezamidine, 10 µg/mL Aprotinin, 10 µg/mL Leupeptin, 710 ng/mL Pepstatin A, 100 µg/mL Trypsin Inhibitor, 40 µg/mL Bestatin, completed with PhosSTOP EASYpack and complete Mini, EDTA-free) and incubated 20 minutes at 4 °C and then centrifugated. Lysates are kept at -80 °C. The protein content of the lysates is determined by DC protein assay (Biorad, Ref. 5000116). The proteins are resolved by SDS-PAGE and transferred to nitrocellulose membrane (GE Healthcare #10600003). The membranes are incubated overnight at 4 °C with antibodies specific for DDR1 (D1G6) (Cell signaling #5583), P-DDR1 (Y513) (E1N8F) (Cell Signaling # 14531) they are washed and then incubated with Alexa Fluor 680 goat anti-rabbit IgG secondary antibodies (Invitrogen, A21076). The bands are visualized and quantified using an Odyssey infrared imaging system (Li-Cor Biosciences). The percentage of DDR1 phosphorylation is finally plotted against concentration for each compound and EC50s for intracellular DDR1 inhibition are calculated using ActivityBase from IDBS.

IC50 [1] [nM] | IC50 [2] [nM] | EC50 [3] [nM] | SMILES
15 | 4.54 | 21.1 | CN1CCN(c2ccc(Nc3nccc(-c4sc5nccc(=O)n5c4-c4ccc(O)cc4)n3)cc2)CC1 [Compound 57, 3-(4-Hydroxy-phenyl)-2-{2-[4-(4-methyl-piperazin-1-yl)-phenylamino]-pyrimidin-4-yl}-thiazolo[3,2-a]pyrimidin-5-one]
30.5 | 6.4 | 28 | O=c1ccnc2sc(-c3ccnc(Nc4cccc(N5CCN(CCO)CC5)c4)n3)c(-c3ccc(F)cc3)n12 [Compound 58, 3-(4-Fluoro-phenyl)-2-(2-{3-[4-(2-hydroxy-ethyl)-piperazin-1-yl]-phenylamino}-pyrimidin-4-yl)-thiazolo[3,2-a]pyrimidin-5-one]
47.3 | 10.2 | 99.3 | NS(=O)(=O)c1cccc(Nc2nccc(-c3sc4nccc(=O)n4c3-c3cccc(Cl)c3Cl)n2)c1 [Compound 59, 3-{4-[3-(2,3-Dichloro-phenyl)-5-oxo-5H-thiazolo[3,2-a]pyrimidin-2-yl]-pyrimidin-2-ylamino}-benzenesulfonamide]
18.3 | 5.43 | 31.9 | O=c1ccnc2sc(-c3ccnc(Nc4cccc(N5CCN(CCO)CC5)c4)n3)c(-c3cccc(Cl)c3Cl)n12 [Compound 60, 3-(2,3-Dichloro-phenyl)-2-(2-{3-[4-(2-hydroxy-ethyl)-piperazin-1-yl]-phenylamino}-pyrimidin-4-yl)-thiazolo[3,2-a]pyrimidin-5-one]
40.8 | 12.9 | 63.2 | NS(=O)(=O)c1cccc(Nc2nccc(-c3sc4nccc(=O)n4c3-c3ccc(Cl)c(Cl)c3)n2)c1 [Compound 61, 3-{4-[3-(3,4-Dichloro-phenyl)-5-oxo-5H-thiazolo[3,2-a]pyrimidin-2-yl]-pyrimidin-2-ylamino}-benzenesulfonamide]
54 | 10.9 | 82.7 | COc1ccc(-c2c(-c3ccnc(Nc4cccc(N5CCN(CCO)CC5)c4)n3)sc3nccc(=O)n23)cc1Cl [Compound 62, 3-(3-Chloro-4-methoxy-phenyl)-2-(2-{3-[4-(2-hydroxy-ethyl)-piperazin-1-yl]-phenylamino}-pyrimidin-4-yl)-thiazolo[3,2-a]pyrimidin-5-one]
325 | 119 | 142 | O=c1ccnc2sc(-c3ccnc(Nc4cccc(N5CCN(CCO)CC5)c4)n3)c(-c3ccc(F)c(C(F)(F)F)c3)n12 [Compound 63, 3-(4-Fluoro-3-trifluoromethyl-phenyl)-2-(2-{3-[4-(2-hydroxy-ethyl)-piperazin-1-yl]-phenylamino}-pyrimidin-4-yl)-thiazolo[3,2-a]pyrimidin-5-one]
90.6 | 15.3 | 58.7 | CC(C)c1c(-c2ccnc(Nc3cccc(N4CCN(CCO)CC4)c3)n2)sc2nccc(=O)n12 [Compound 64, 2-(2-{3-[4-(2-Hydroxy-ethyl)-piperazin-1-yl]-phenylamino}-pyrimidin-4-yl)-3-isopropyl-thiazolo[3,2-a]pyrimidin-5-one]
466 | 118 | 163 | O=c1ccnc2sc(-c3ccnc(Nc4cccc(N5CCN(CCO)CC5)c4)n3)c(C3CC3)n12 [Compound 65, 3-Cyclopropyl-2-(2-{3-[4-(2-hydroxy-ethyl)-piperazin-1-yl]-phenylamino}-pyrimidin-4-yl)-thiazolo[3,2-a]pyrimidin-5-one]
1480 | 321 | 610 | O=c1ccnc2sc(-c3ccnc(Nc4cccc(N5CCN(CCO)CC5)c4)n3)c(C3CCOCC3)n12 [Compound 66, 2-(2-{3-[4-(2-Hydroxy-ethyl)-piperazin-1-yl]-phenylamino}-pyrimidin-4-yl)-3-(tetrahydropyran-4-yl)-thiazolo[3,2-a]pyrimidin-5-one]
423 | 147 | 34.6 | CCOC(=O)c1cnc2sc(-c3ccnc(Nc4cccc(N5CCN(CCO)CC5)c4)n3)c(-c3ccccc3)n2c1=O [Compound 71, 2-(2-{3-[4-(2-Hydroxy-ethyl)-piperazin-1-yl]-phenylamino}-pyrimidin-4-yl)-5-oxo-3-phenyl-5H-thiazolo[3,2-a]pyrimidine-6-carboxylic acid ethyl ester]
26.9 | 9.06 | 59 | Cc1cc(=O)n2c(-c3ccccc3)c(-c3ccnc(Nc4cccc(N5CCN(CCO)CC5)c4)n3)sc2n1 [Compound 72, 2-(2-{3-[4-(2-Hydroxy-ethyl)-piperazin-1-yl]-phenylamino}-pyrimidin-4-yl)-7-methyl-3-phenyl-thiazolo[3,2-a]pyrimidin-5-one]
11.6 | 12.9 | 39.5 | CCc1cc(=O)n2c(-c3ccccc3)c(-c3ccnc(Nc4cccc(N5CCN(CCO)CC5)c4)n3)sc2n1 [Compound 74, 7-Ethyl-2-(2-{3-[4-(2-hydroxy-ethyl)-piperazin-1-yl]-phenylamino}-pyrimidin-4-yl)-3-phenyl-thiazolo[3,2-a]pyrimidin-5-one]
55.8 | 15.3 | 141 | Cc1nc2sc(-c3ccnc(Nc4cccc(N5CCN(CCO)CC5)c4)n3)c(-c3ccccc3)n2c(=O)c1C [Compound 75, 2-(2-{3-[4-(2-Hydroxy-ethyl)-piperazin-1-yl]-phenylamino}-pyrimidin-4-yl)-6,7-dimethyl-3-phenyl-thiazolo[3,2-a]pyrimidin-5-one]
69.4 | 25.5 | 46.8 | CCc1c(C)nc2sc(-c3ccnc(Nc4cccc(N5CCN(CCO)CC5)c4)n3)c(-c3ccccc3)n2c1=O [Compound 77, 6-Ethyl-2-(2-{3-[4-(2-hydroxy-ethyl)-piperazin-1-yl]-phenylamino}-pyrimidin-4-yl)-7-methyl-3-phenyl-thiazolo[3,2-a]pyrimidin-5-one]
